Measurements from ChEMBL document CHEMBL3425434 (J Med Chem, 2015).
Calls of active or inactive are those of the source. No cut-off for these calls is given here.

Columns and labels:
[1] = Half life in human plasma by LC-MS/MS analysis; assay type: ADME, cell-free
[2] = biological target: T1, Rho-associated protein kinase 2 (Homo sapiens, UniProt O75116); test: Inhibition of human N-terminal GST-tagged ROCK2 expressed in baculovirus-infected insect cells using long S6 kinase peptide as substrate by radiometric assay in presence of [32P]ATP
T1 sequence (O75116 whole entry): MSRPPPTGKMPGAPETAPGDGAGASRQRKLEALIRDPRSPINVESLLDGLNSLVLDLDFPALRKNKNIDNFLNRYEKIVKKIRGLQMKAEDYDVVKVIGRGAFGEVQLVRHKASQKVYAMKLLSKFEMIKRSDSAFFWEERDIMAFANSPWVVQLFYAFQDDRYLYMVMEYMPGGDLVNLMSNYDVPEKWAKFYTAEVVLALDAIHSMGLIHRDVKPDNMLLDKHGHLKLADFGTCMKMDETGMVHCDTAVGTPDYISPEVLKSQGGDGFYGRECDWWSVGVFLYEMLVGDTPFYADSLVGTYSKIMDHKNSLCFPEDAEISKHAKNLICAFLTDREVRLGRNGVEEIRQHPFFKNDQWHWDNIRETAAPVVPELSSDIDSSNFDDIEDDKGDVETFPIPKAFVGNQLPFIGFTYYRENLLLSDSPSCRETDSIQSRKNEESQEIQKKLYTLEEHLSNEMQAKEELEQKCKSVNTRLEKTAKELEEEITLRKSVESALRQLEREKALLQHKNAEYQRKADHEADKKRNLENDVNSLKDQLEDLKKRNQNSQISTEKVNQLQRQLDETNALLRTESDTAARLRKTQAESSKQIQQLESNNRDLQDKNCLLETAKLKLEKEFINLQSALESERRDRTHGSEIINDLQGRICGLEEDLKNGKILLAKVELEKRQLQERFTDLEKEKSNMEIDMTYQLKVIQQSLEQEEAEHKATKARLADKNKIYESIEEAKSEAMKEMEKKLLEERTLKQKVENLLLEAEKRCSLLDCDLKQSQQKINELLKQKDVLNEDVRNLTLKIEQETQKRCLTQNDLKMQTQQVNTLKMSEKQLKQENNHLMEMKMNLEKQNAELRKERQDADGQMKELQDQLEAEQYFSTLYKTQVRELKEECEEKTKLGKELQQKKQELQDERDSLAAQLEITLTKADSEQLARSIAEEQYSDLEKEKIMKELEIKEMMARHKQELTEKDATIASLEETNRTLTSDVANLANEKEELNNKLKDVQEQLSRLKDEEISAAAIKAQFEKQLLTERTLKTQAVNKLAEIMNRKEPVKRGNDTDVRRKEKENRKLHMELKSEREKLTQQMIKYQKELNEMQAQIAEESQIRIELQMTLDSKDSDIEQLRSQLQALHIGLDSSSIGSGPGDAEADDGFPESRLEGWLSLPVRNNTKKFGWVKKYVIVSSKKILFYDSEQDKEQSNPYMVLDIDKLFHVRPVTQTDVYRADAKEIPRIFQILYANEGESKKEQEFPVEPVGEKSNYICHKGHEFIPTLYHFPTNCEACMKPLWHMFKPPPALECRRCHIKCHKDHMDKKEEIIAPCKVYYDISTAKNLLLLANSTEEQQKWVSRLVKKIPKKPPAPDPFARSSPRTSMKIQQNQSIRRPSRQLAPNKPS

[3] = biological target: T1, Rho-associated protein kinase 2; test: Inhibition of human N-terminal GST-tagged ROCK2 expressed in baculovirus-infected insect cells using long S6 kinase peptide as substrate by radiometric assay in presence of [32P]ATP and 200 uM ATP
[4] = Inhibition of ROCK-catalysed MLC Thr18/Ser19 phosphorylation in rat A7r5 cells after 90 mins by ELISA; assay type: cell-based; conditions: A7R5, 1.5 h
[5] = Stability in human plasma assessed as compound remaining after 60 mins by LC-MS/MS analysis in presence of 5 uM cholinesterase inhibitor tacrine; assay type: ADME, cell-free; conditions: with tacrine (cholinesterase inhibitor), read-out: Stability
[6] = Stability in human plasma assessed as compound remaining after 60 mins by LC-MS/MS analysis; assay type: ADME, cell-free; conditions: read-out: Stability
[7] = biological target: Rho-associated protein kinase 1 (Homo sapiens, UniProt Q13464); test: Inhibition of human N-terminal GST-tagged ROCK1 expressed in insect cells using long S6 kinase peptide as substrate by radiometric assay in presence of [32P]ATP
Rho-associated protein kinase 1, sequence (Q13464 whole entry): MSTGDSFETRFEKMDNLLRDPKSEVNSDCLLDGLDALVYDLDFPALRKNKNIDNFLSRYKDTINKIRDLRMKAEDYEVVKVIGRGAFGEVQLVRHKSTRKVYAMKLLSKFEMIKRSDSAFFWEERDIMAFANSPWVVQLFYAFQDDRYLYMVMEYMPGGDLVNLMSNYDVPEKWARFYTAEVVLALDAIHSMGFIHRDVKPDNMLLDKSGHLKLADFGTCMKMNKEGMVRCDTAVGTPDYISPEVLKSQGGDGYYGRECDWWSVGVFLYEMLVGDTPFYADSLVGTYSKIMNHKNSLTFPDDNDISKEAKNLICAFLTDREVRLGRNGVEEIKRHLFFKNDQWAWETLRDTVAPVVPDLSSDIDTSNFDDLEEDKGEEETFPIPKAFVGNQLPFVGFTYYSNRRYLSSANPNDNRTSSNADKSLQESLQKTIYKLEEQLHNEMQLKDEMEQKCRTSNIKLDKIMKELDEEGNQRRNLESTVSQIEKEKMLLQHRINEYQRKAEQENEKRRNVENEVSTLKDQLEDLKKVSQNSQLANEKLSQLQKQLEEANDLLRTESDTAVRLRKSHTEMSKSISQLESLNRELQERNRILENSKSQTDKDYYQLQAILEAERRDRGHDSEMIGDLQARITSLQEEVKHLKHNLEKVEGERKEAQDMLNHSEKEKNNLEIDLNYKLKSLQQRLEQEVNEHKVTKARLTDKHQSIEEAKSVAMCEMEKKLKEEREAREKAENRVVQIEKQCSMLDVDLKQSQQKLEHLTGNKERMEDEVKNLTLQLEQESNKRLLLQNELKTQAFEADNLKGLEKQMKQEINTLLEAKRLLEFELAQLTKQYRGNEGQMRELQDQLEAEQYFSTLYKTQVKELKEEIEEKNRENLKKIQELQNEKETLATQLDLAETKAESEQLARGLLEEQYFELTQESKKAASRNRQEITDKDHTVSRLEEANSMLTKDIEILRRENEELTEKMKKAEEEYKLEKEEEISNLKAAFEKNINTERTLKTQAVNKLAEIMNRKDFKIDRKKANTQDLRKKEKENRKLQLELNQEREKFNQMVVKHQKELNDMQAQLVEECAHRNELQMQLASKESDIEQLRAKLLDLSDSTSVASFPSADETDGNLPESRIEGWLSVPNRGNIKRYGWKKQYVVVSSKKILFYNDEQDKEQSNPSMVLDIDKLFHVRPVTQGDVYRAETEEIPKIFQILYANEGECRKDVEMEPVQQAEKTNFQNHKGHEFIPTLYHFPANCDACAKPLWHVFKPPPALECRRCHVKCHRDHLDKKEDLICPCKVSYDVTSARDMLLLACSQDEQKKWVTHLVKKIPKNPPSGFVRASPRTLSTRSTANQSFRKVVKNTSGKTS

[8] = Half life in human plasma by LC-MS/MS analysis in presence of 5 uM cholinesterase inhibitor tacrine; assay type: ADME, cell-free; conditions: with tacrine (cholinesterase inhibitor)
[9] = Apparent permeability across human Caco2 cells; assay type: ADME, cell-based; conditions: Caco-2
[10] = Lipophilicity, log D of the compound at pH 7.4; assay type: physicochemical; conditions: buffer
[11] = test system: HDF-1; test: Induction of cell migration in human HDF-1 cells at 1 uM after 8 hrs by wound healing assay; assay type: functional, cell-based
[12] = Stability in human plasma assessed as compound remaining after 2 hrs by LC-MS/MS analysis; assay type: ADME, cell-free; conditions: read-out: Stability

NCc1ccc(C(=O)Nc2ccncc2F)cc1-c1cccc(C(=O)Nc2ccc(CC(=O)OC3CCCOC3)cc2)c1 (stereo not given)
half-life [1]: 6 min | IC50 [2]: < 1 nM | IC50 [3]: < 1 nM | EC50 [4]: 36 nM

COCCOC(=O)c1ccc(F)c(C(=O)Nc2cccc(-c3cc(C(=O)Nc4ccncc4F)ccc3CN)c2)c1
half-life [1]: < 5 min | IC50 [2]: < 1 nM | remaining at 1 h [5]: 88% | IC50 [3]: 2.2 nM | remaining at 1 h [6]: 0% | EC50 [4]: 26 nM

COC(=O)c1cccc(C(=O)Nc2cccc(-c3cc(C(=O)Nc4ccncc4F)ccc3CN)c2)c1
half-life [1]: 64 min | IC50 [2]: < 1 nM | IC50 [3]: 2.1 nM | EC50 [4]: 17 nM

CCCOC(=O)c1cccc(C(=O)Nc2cccc(-c3cc(C(=O)Nc4ccncc4F)ccc3CN)c2)c1
half-life [1]: < 5 min | IC50 [2]: 1.8 nM | EC50 [4]: 15 nM

C[C@H]1CNCCCN1S(=O)(=O)c1cccc2cncc(F)c12
IC50 [2]: 3.8 nM | IC50 [3]: 197 nM | EC50 [4]: 210 nM

CC(C)OC(=O)c1cccc(NC(=O)c2cccc(-c3cc(C(=O)Nc4ccncc4F)ccc3CN)c2)c1
half-life [1]: 34 min | IC50 [2]: 7 nM | EC50 [4]: 150 nM

NCc1ccc(C(=O)Nc2ccncc2F)cc1-c1cccc(C(=O)Nc2cccc(CC(=O)O)c2)c1
half-life [1]: > 120 min | IC50 [2]: 1.5 nM | EC50 [4]: 1300 nM

NCc1ccc(C(=O)Nc2ccncc2F)cc1-c1cccc(C(=O)Nc2ccc(CC(=O)OC3CCOCC3)cc2)c1
half-life [1]: 7 min | IC50 [2]: < 1 nM | remaining at 1 h [5]: 82% | IC50 [3]: < 1 nM | remaining at 1 h [6]: 0% | EC50 [4]: 79 nM

NCc1ccc(C(=O)Nc2ccncc2F)cc1-c1cccc(NC(=O)c2cccc(C(=O)O)c2)c1
half-life [1]: > 120 min | IC50 [2]: < 1 nM | EC50 [4]: 2000 nM

COC(=O)c1ccc(C(=O)Nc2cccc(-c3cc(C(=O)Nc4ccncc4F)ccc3CN)c2)cc1
half-life [1]: > 120 min | IC50 [2]: < 1 nM | IC50 [3]: 3.1 nM | EC50 [4]: 5.2 nM

C[C@@H](N)[C@H]1CC[C@H](C(=O)Nc2ccncc2)CC1 [Y-27632]
half-life [1]: > 120 min | EC50 [4]: 630 nM

CC[C@@H](C)OC(=O)Cc1ccc(NC(=O)c2cccc(-c3cc(C(=O)Nc4ccncc4F)ccc3CN)c2)cc1
half-life [1]: > 120 min | IC50 [2]: < 1 nM | IC50 [3]: < 1 nM | EC50 [4]: 31 nM

COC(=O)c1ccc(F)c(C(=O)Nc2cccc(-c3cc(C(=O)Nc4ccncc4F)ccc3CN)c2)c1
half-life [1]: 53 min | IC50 [2]: < 1 nM | remaining at 1 h [5]: 103% | IC50 [3]: 1.4 nM | remaining at 1 h [6]: 23% | EC50 [4]: 6.8 nM

CCCCOC(=O)c1cccc(NC(=O)c2cccc(-c3cc(C(=O)Nc4ccncc4F)ccc3CN)c2)c1
half-life [1]: < 5 min | IC50 [2]: 27 nM | EC50 [4]: 180 nM

NCc1ccc(C(=O)Nc2ccncc2F)cc1-c1cccc(C(=O)Nc2ccc(CC(=O)OC3CCC3)cc2)c1
half-life [1]: 6 min | IC50 [2]: 1.3 nM | IC50 [3]: 1.4 nM | EC50 [4]: 24 nM

NCc1ccc(C(=O)Nc2ccncc2F)cc1-c1cccc(C(=O)Nc2cc(C(=O)O)ccc2F)c1
half-life [1]: > 120 min | IC50 [2]: 2 nM | EC50 [4]: 3900 nM

CC[C@@H](C)OC(=O)c1ccc(F)c(NC(=O)c2cccc(-c3cc(C(=O)Nc4ccncc4F)ccc3CN)c2)c1
half-life [1]: 46 min | IC50 [2]: 3.3 nM | EC50 [4]: 79 nM

COC(=O)Cc1cccc(NC(=O)c2cccc(-c3cc(C(=O)Nc4ccncc4F)ccc3CN)c2)c1
IC50 [7]: < 1 nM | half-life [1]: < 5 min | IC50 [2]: 1.1 nM | IC50 [3]: 144 nM | EC50 [4]: 220 nM

NCc1ccc(C(=O)Nc2ccncc2F)cc1-c1cccc(C(=O)Nc2cccc(C(=O)O)c2)c1
half-life [1]: > 120 min | IC50 [2]: 6.6 nM | EC50 [4]: 5900 nM

COC(=O)Cc1ccc(NC(=O)c2cccc(-c3cc(C(=O)Nc4ccncc4F)ccc3CN)c2)cc1
IC50 [7]: < 1 nM | half-life [1]: < 5 min | IC50 [2]: < 1 nM | IC50 [3]: 11 nM | half-life [8]: 53 min | EC50 [4]: 31 nM

NCc1ccc(C(=O)Nc2ccncc2F)cc1-c1cccc(C(=O)Nc2ccc(C(=O)O)cc2)c1
half-life [1]: > 120 min | Papp [9]: 0.08 ×10⁻⁶ cm/s | logD [10]: 0.56 | IC50 [2]: 3.3 nM | Activity [11]: inactive | EC50 [4]: 6600 nM

NCc1ccc(C(=O)Nc2ccncc2F)cc1-c1cccc(NC(=O)c2cc(C(=O)O)ccc2F)c1
half-life [1]: > 120 min | IC50 [2]: < 1 nM | EC50 [4]: 8900 nM

CC[C@H](C)OC(=O)c1ccc(F)c(NC(=O)c2cccc(-c3cc(C(=O)Nc4ccncc4F)ccc3CN)c2)c1
half-life [1]: 39 min | IC50 [2]: 5.5 nM | IC50 [3]: 72 nM | EC50 [4]: 50 nM

CCCOC(=O)c1ccc(F)c(NC(=O)c2cccc(-c3cc(C(=O)Nc4ccncc4F)ccc3CN)c2)c1
half-life [1]: < 5 min | IC50 [2]: 2.1 nM | EC50 [4]: 75 nM

CCCOC(=O)c1ccc(NC(=O)c2cccc(-c3cc(C(=O)Nc4ccncc4F)ccc3CN)c2)cc1
half-life [1]: > 120 min | IC50 [2]: < 1 nM | EC50 [4]: 8.3 nM

NCc1ccc(C(=O)Nc2ccncc2F)cc1-c1cccc(C(=O)Nc2cccc(C(=O)O)c2F)c1
half-life [1]: > 120 min | IC50 [2]: 3.5 nM | EC50 [4]: > 10000 nM

COC(=O)c1cccc(NC(=O)c2cccc(-c3cc(C(=O)Nc4ccncc4F)ccc3CN)c2)c1
IC50 [7]: < 1 nM | half-life [1]: < 5 min | IC50 [2]: 1.1 nM | IC50 [3]: 125 nM | half-life [8]: 53 min | EC50 [4]: 79 nM

NCc1ccc(C(=O)Nc2ccncc2F)cc1-c1cccc(C(=O)Nc2ccccc2)c1
half-life [1]: > 120 min | Papp [9]: 2.3 ×10⁻⁶ cm/s | remaining at 2 h [12]: > 90% | IC50 [2]: < 1 nM | IC50 [3]: 31 nM | EC50 [4]: 22 nM

NCc1ccc(C(=O)Nc2ccncc2F)cc1-c1cccc(C(=O)Nc2cccc(C(=O)OC3CCCC3)c2F)c1
half-life [1]: 9 min | IC50 [2]: 1.4 nM | IC50 [3]: 41 nM | EC50 [4]: 43 nM

CC[C@H](C)OC(=O)Cc1ccc(NC(=O)c2cccc(-c3cc(C(=O)Nc4ccncc4F)ccc3CN)c2)cc1
half-life [1]: 17 min | IC50 [2]: < 1 nM | remaining at 1 h [5]: 101% | IC50 [3]: < 1 nM | remaining at 1 h [6]: 42% | EC50 [4]: 23 nM

COC(=O)c1cccc(NC(=O)c2cccc(-c3cc(C(=O)Nc4ccncc4F)ccc3CN)c2)c1F
half-life [1]: < 5 min | IC50 [2]: 1.2 nM | IC50 [3]: 8.8 nM | EC50 [4]: 11 nM

CCC(C)OC(=O)c1cccc(NC(=O)c2cccc(-c3cc(C(=O)Nc4ccncc4F)ccc3CN)c2)c1 (stereo not given)
half-life [1]: 16 min | IC50 [2]: 2.6 nM | EC50 [4]: 77 nM

NCc1ccc(C(=O)Nc2ccncc2F)cc1-c1cccc(C(=O)Nc2ccc(CC(=O)O)cc2)c1
half-life [1]: > 120 min | IC50 [2]: 1.8 nM | EC50 [4]: 3600 nM

CN1CCC(OC(=O)Cc2ccc(NC(=O)c3cccc(-c4cc(C(=O)Nc5ccncc5F)ccc4CN)c3)cc2)CC1
half-life [1]: < 5 min | IC50 [2]: < 1 nM | IC50 [3]: 4.6 nM | EC50 [4]: 330 nM

NCc1ccc(C(=O)Nc2ccncc2F)cc1-c1cccc(C(=O)OCC2CCCO2)c1 (stereo not given)
half-life [1]: < 5 min | IC50 [3]: 49 nM | EC50 [4]: 94 nM

CC(C)OC(=O)Cc1ccc(NC(=O)c2cccc(-c3cc(C(=O)Nc4ccncc4F)ccc3CN)c2)cc1
half-life [1]: 94 min | IC50 [2]: < 1 nM | IC50 [3]: < 1 nM | EC50 [4]: 37 nM

NCc1ccc(C(=O)Nc2ccncc2F)cc1-c1cccc(NC(=O)c2ccc(C(=O)O)cc2)c1
IC50 [2]: 1 nM | EC50 [4]: 3600 nM
